Reference: publication PMC12390684 (Viruses, 2025)
Square brackets hold non-standard residues; d marks the D form. Peptide text beside a SMILES is read from it. dHica = CC(C)C[C@@H](O)C(=O)O; NMeV = CN[C@H](C(=O)O)C(C)C; NMeA = CN[C@@H](C)C(=O)O; βAla = NCCC(=O)O

These molecules were tested against IN-GCN2 interaction (6xHis-IN / GST-GCN2) (UniProt P04585+Q9P2K8) (assay: biochemical). Details: IC50, inhibition of IN-GCN2 interaction, SAR study, fresh dilutions from powder; at least three independent experiments.
Format: binding, HIV-1 IN; human GCN2

IN-GCN2 interaction (6xHis-IN / GST-GCN2), sequence (Q9P2K8 192-1024, other chains not shown): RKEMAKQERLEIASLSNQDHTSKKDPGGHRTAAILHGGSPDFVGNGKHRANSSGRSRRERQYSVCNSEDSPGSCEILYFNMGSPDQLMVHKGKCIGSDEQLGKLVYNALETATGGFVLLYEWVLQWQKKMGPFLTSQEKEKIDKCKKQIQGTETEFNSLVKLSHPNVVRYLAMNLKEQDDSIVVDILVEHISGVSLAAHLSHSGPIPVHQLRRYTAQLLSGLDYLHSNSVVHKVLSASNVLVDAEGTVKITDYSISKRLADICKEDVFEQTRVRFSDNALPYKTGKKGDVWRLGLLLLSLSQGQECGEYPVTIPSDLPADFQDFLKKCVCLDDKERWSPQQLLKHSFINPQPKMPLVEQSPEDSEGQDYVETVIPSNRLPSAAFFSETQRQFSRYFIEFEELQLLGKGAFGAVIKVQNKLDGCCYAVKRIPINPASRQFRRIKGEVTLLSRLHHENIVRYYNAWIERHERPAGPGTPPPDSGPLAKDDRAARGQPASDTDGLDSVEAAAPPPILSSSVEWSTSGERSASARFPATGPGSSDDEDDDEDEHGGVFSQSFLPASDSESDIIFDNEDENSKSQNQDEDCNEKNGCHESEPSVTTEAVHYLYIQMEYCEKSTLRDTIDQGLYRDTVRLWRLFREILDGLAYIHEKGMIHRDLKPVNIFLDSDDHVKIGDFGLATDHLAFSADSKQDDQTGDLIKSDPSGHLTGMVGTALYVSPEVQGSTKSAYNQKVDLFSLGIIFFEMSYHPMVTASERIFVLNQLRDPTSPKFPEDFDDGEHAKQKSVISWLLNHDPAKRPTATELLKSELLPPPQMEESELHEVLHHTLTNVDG

Structure (SMILES)	IC50 [µM]
CCC1(O)CC(OC2CC(N(C)C)C(OC3CC(O)C(OC4CC(O)C(O)C(C)O4)C(C)O3)C(C)O2)c2c(cc3c(c2O)C(=O)c2c(O)ccc(O)c2C3=O)C1C(=O)OC (stereo not shown) [NSC265211]	> 100

Same assay, conditions: at 33 µM, compared to DMSO

Structure (SMILES)	AlphaLISA signal in dose-response [%]
COc1ccc2c(=O)oc3c(OC)cc(CCN(C)C)c4c(=O)oc1c2c34 [NSC76022]	120

Same assay, conditions: at 100 µM, compared to DMSO

Structure (SMILES)	AlphaLISA signal in dose-response [%]
COc1ccc2c(=O)oc3c(OC)cc(CCN(C)C)c4c(=O)oc1c2c34 [NSC76022]	200

Same assay, conditions: dose-response assessment

Structure (SMILES)	effect on IN-GCN2 interaction in dose-response, in words
CC(=O)O[C@@H]1C[C@H]2O[C@@H]3C=C(C)CC[C@]3(C)[C@]1(C)[C@]21CO1 [NSC267023]	inactive

Same assay, conditions: read-out: inhibition of IN-GCN2 interaction

Structure (SMILES)	inhibition at 100 µM [%]
CCC1(O)CC(OC2CC(N(C)C)C(OC3CC(O)C(OC4CC(O)C(O)C(C)O4)C(C)O3)C(C)O2)c2c(cc3c(c2O)C(=O)c2c(O)ccc(O)c2C3=O)C1C(=O)OC (stereo not shown) [NSC265211]	~60

Same assay, conditions: screen, single dose 100 µM, single replicate; residual AlphaLISA signal normalized to DMSO control

Structure (SMILES)	IN-GCN2 interaction (%)
CC[C@H]1NC(=O)[C@@H](NC(=O)c2ncccc2O)[C@@H](C)OC(=O)[C@H](c2ccccc2)NC(=O)[C@@H]2CC(=O)CCN2C(=O)[C@H](Cc2ccccc2)N(C)C(=O)[C@@H]2CCCN2C1=O [NSC177858]	35.20
O=C(O)C1OC(O)C(O)C(O)C1O (stereo not shown) [NSC9248]	110.72
O=c1cccc2n1C[C@H]1C[C@@H]2CN2CCCC[C@@H]12 [NSC21725]	90.50
C/C=C/c1cc2c(c(=O)o1)C(=O)[C@@H](O)[C@H](C)O2 [NSC118343]	125.37
COc1ccc2c(c1O)-c1c3c(cc4c1[C@H](C2)N(C)CC4)OCO3 [NSC785188]	77.54
COc1cc2c3c(c1O)C1(C=CC(=O)C=C1)C[C@@H]3N(C)CC2 [NSC785166]	94.62
C[C@]12C(=O)C=CCC1=CC[C@@H]1[C@@H]2CC[C@]2(O)C(=O)O[C@@]3(C)[C@H]4C[C@]5(C)[C@@H](CO[C@@]16O[C@@]32[C@H]5C6=O)C(=O)O4 [NSC287088]	131.80
CC[C@](C)(O)C(=O)O[C@H]1C(=O)O[C@@H]2C[C@H]3C(C)=CC(=O)[C@@H](O)[C@]3(C)[C@H]3[C@@]4(O)OC[C@]32[C@@H]1[C@@H](C)[C@H]4O [NSC132791]	89.72
COc1c(OC)c2c3c(ncc(OC)c3c1OC)C(=O)c1ccccc1-2 [NSC785150]	58.33
CC(C)c1ccc2c(c1)CC[C@H]1[C@](C)(C(=O)O)CCC[C@]21C [NSC2952]	107.26
CCOc1ccc2c(c1)-c1c(O)c(OC)cc3c1[C@H](C2)N(C)CC3 [NSC785169]	40.02
CC(=O)OC1CCC2(C)C(=CCC3C2CCC2(C)C3CC3OC4(CCC(C)CN4)C(C)C32)C1 (stereo not shown) [NSC96021]	132.69
C/C(=C\COc1ccc2ccc(=O)oc2c1)C1=CC(=O)C(C)(C)O1 [NSC142227]	94.46
C=C1CCO[C@]2([C@@H](O)[C@@](C)(O)CO)NC(=O)[C@@]1(O)NC2=O [NSC180516]	114.16
CO[C@H]1C[C@@H]2CC[C@@H](C)[C@@](O)(O2)C(=O)C(=O)N2CCCC[C@H]2C(=O)O[C@H]([C@H](C)C[C@@H]2CC[C@@H](O)[C@H](OC)C2)CC(=O)[C@H](C)/C=C(\C)[C@@H](O)[C@@H](OC)C(=O)[C@H](C)C[C@H](C)/C=C/C=C/C=C/1C [NSC226080]	54.18
COc1cc2cc(c1Cl)N(C)C(=O)C[C@H](OC(=O)C(C)C)[C@]1(C)O[C@H]1[C@H](C)[C@@H]1C[C@@](O)(NC(=O)O1)[C@H](OC)/C=C/C=C(\C)C2 [NSC292222]	93.28
CC[C@H](C)[C@@H]1NC(=O)[C@@H]2CCCN2C(=O)[C@@H](CC(C)C)OC(=O)CCNC(=O)[C@H](C)N(C)C(=O)[C@H](C(C)C)N(C)C1=O [NSC236580] (cyclo([dHica]PI[NMeV][NMeA][βAla]))	98.06
C[C@@H]1C(=O)C[C@H]2C(C)(C)CCC[C@]2(C)[C@@]1(O)CCc1ccoc1 [NSC332876]	44.59
CO[C@H]1/C=C/O[C@@]2(C)Oc3c(C)c(O)c4c(O)c(cc(O)c4c3C2=O)NC(=O)/C(C)=C\C=C\[C@H](C)[C@H](O)[C@@H](C)[C@@H](O)[C@@H](C)[C@H](OC(C)=O)[C@@H]1C [NSC133100]	111.79
CC[C@@H](O)C[C@H]1CCC[C@@]2(C[C@@H]3OC(=O)/C=C/[C@@](C)(O)[C@@H](O)[C@H](C)[C@@H](O)[C@H](OC4CCC(N(C)C)C(C)O4)[C@@H](O)[C@](C)(O)CCCCC/C=C/[C@@H]4CC(C)(C)O[C@@]4(O)C[C@H](O2)[C@H]3C)O1 (stereo partly shown) [NSC76627]	52.50
CC(=O)O[C@H]1C[C@H](O[C@H]2[C@@H](O)C[C@H](O[C@H]3[C@@H](O)C[C@H](O[C@H]4CC[C@@]5(C)[C@H](CC[C@@H]6[C@@H]5C[C@@H](O)[C@]5(C)[C@@H](C7=CC(=O)OC7)CC[C@]65O)C4)O[C@@H]3C)O[C@@H]2C)O[C@H](C)[C@H]1O[C@@H]1O[C@H](CO)[C@@H](O)[C@H](O)[C@H]1O [NSC7533]	107.72
CCCCC[C@@H](O)[C@H]1C(=O)O[C@H](C)[C@@H](O)/C=C/C=C/C=C/C=C/C=C(\C)[C@@H](O)[C@H](O)[C@H](O)C[C@H](O)C[C@H](O)C[C@H](O)C[C@H](O)C[C@@H]1O [NSC105388]	86.99
COC1CC(C)C(OC)c2cc(O)cc(c2O)NC(=O)/C(C)=C\C=C/C(C)C(OC(N)=O)/C(C)=C\C(C)C1OC (stereo not shown) [NSC330500]	77.16

Structure (SMILES)	IN-GCN2 interaction (%)
C=C1C(=O)OC2CCN3CC=C(COC(=O)C(C)(O)C4(CO4)C1C)C23 (stereo not shown) [NSC129230]	110.22
CC1(C)CCC2=C(O1)c1ccccc1C(=O)C2=O [NSC26326]	107.59
Br.C=CC1CN2CCC1CC2C(O)c1ccnc2ccc(OC)cc12 (stereo not shown) [NSC12865]	97.92
Nc1ncn([C@@H]2O[C@H](CO)[C@@H](O)[C@H]2O)c(=O)n1 [NSC102816]	106.78
COc1cc2c3c(c1O)-c1cc(O)ccc1CC3N(C)CC2 (stereo not shown) [NSC785186]	59.88
COc1cc(OC)c(C(=O)/C=C/c2ccc(OC)c(OC)c2)c(OC)c1 [NSC75527]	89.20
N=C(N)CCNC(=O)C1CCC(N)=N1 (stereo not shown) [NSC72942]	100.21
CCC1(O)CC(OC2CC(N(C)C)C(OC3CC(O)C(OC4CC(O)C(O)C(C)O4)C(C)O3)C(C)O2)c2c(cc3c(c2O)C(=O)c2c(O)ccc(O)c2C3=O)C1C(=O)OC (stereo not shown) [NSC265211]	39.6
C[C@H](CCC(=O)O)[C@H]1CC[C@H]2[C@@H]3CC[C@@H]4C[C@H](O)CC[C@]4(C)[C@H]3C[C@H](O)[C@]12C [NSC8797]	85.28
CN1[C@@H]2CC[C@H]1CC(O)C2 (stereo partly shown) [NSC43871]	99.50
COc1cc([C@@H]2c3cc4c(cc3[C@H](O)[C@H]3COC(=O)[C@@H]23)OCO4)cc(OC)c1OC [NSC36407]	109.04
CC1CC(O)C2C3(C)CCCC2(COC3=O)C12CCC1(CCOC1=O)O2 (stereo not shown) [NSC250429]	134.45
COc1cc(O[C@@H]2O[C@H](CO)[C@@H](O)[C@H](O)[C@H]2O)c2c(c1)O[C@H](c1ccc(O)cc1)CC2=O [NSC407308]	92.73
CC(=O)O[C@H]1C(=O)[C@@]2(C)[C@H]([C@H](OC(=O)c3ccccc3)[C@]3(O)C[C@H](O)C(C)=C1C3(C)C)[C@]1(OC(C)=O)CO[C@@H]1C[C@@H]2O [NSC330753]	109.90
CC(C)[C@@H]1NC(=O)[C@H](C)OC(=O)[C@@H](C(C)C)NC(=O)[C@@H](C(C)C)OC(=O)[C@H](C(C)C)NC(=O)[C@H](C)OC(=O)[C@@H](C(C)C)NC(=O)[C@@H](C(C)C)OC(=O)[C@H](C(C)C)NC(=O)[C@H](C)OC(=O)[C@@H](C(C)C)NC(=O)[C@@H](C(C)C)OC1=O [NSC122023]	63.87
C=Cc1cc(OC)c2c(c1)c(=O)oc1c2cc(OC)c2c(O)ccc(C3OC(C)C(O)C(C)(O)C3O)c21 (stereo not shown) [NSC354844]	85.63
O=C(O)/C(O)=C(/O)C(=O)O [NSC30238]	100.21
COc1cc2c(c3c1c(=O)c1ccccc1n3C)C=CC(C)(C)O2 [NSC403169]	89.07
COc1cc2c(c(OC)c1OC)-c1ccc(OC)c(=O)cc1[C@@H](NC(=O)c1ccccc1)CC2 [NSC33410]	67.25
COc1c2occc2cc2ccc(=O)oc12 [NSC45923]	121.17
CC[C@]12CN3CCc4c([nH]c5ccccc45)[C@@](C(=O)OC)(c4cc5c(cc4OC)N(C)[C@H]4[C@@](O)(C(=O)OC)[C@H](OC(C)=O)[C@]6(CC)C=CCN7CC[C@]54[C@@H]76)C[C@@H](C3)[C@H]1O2 [NSC90636]	49.62
COc1cccc2c1[C@H](CO)N1[C@H](C#N)[C@@H]3C[C@H](C(=O)O)[C@@H]([C@@H]1C2)N3C [NSC607097]	110.01

Same assay, conditions: screen, single dose 100 µM, single replicate; residual AlphaLISA signal normalized to DMSO control; listed as 43338

Structure (SMILES)	IN-GCN2 interaction (%)
CC(C)c1ccc(O)c(=O)cc1 [NSC43338]	100.42

Same assay, conditions: screen, single dose 100 µM, single replicate; residual AlphaLISA signal normalized to DMSO control; listed as 46728

Structure (SMILES)	IN-GCN2 interaction (%)
C=C1C(=O)OC2CC1C(OC(C)=O)C/C(C)=C/CC/C(C)=C\CCC2(C)O (stereo not shown) [NSC46728]	93.27

Same assay, conditions: screen, single dose 100 µM, single replicate; residual AlphaLISA signal normalized to DMSO control; listed as 265211

Structure (SMILES)	IN-GCN2 interaction (%)
CCC1(O)CC(OC2CC(N(C)C)C(OC3CC(O)C(OC4CC(O)C(O)C(C)O4)C(C)O3)C(C)O2)c2c(cc3c(c2O)C(=O)c2c(O)ccc(O)c2C3=O)C1C(=O)OC (stereo not shown) [NSC265211]	39.59

Same assay, conditions: screen, single dose 100 µM, single replicate; residual AlphaLISA signal normalized to DMSO control; listed as 785147

Structure (SMILES)	IN-GCN2 interaction (%)
COc1c(O)ccc2c1-c1c3c(cc4c1[C@H](C2)N(C)CC4)OCO3 [NSC785147]	67.05

Same assay, conditions: screen, single dose 100 µM, single replicate; residual AlphaLISA signal normalized to DMSO control; listed as 785182

Structure (SMILES)	IN-GCN2 interaction (%)
COc1c(O)ccc2c1-c1c3c(cc4c1[C@H](C2)N(C)CC4)OCO3 [NSC785182]	74.81
